The text below walks through data of patent publication US8309577B2, “Quinuclidine compounds as α-7 nicotinic acetylcholine receptor ligands” (Bristol-Myers Squibb Company, priority 2008, dated 2012).

The target in this assay is T1, α-7 nicotinic acetylcholine receptor channel expressed in HEK 293 cells (Rattus norvegicus, UniProt Q05941).
T1 construct: expressed in transfected cells
Kind of assay: Ca2+-sensitive fluorescence-based FLIPR assay, α7 nicotinic ACh receptor channel function (agonist). The class given is cell-based. As to the method:
I) α7 Nicotinic Acetycholine Receptor Binding. Membranes were prepared for binding using HEK293 cells stably expressing the rat α7 nicotinic acetycholine receptor (rat α7 nAChR). Cells were homogenized at 4° C. in hypotonic lysis buffer consisting of 10 mM Tris (pH 7.4), 5 mM EDTA and protease inhibitors and centrifuged at 32000×g for 20 minutes. The pellet was washed once in membrane wash buffer consisting of 50 mM Tris (pH 7.4), 1 mM EDTA and protease inhibitors and centrifuged at 32000×g for 20 minutes. This pellet was then resuspended in assay buffer consisting 50 mM KH2PO4 (pH 7.4 at 25° C.), 1 mM EDTA, 0.005% Triton-X 100 and 0.1% (v/v) Sigma Protease Inhibitor Cocktail. Aliquots were then frozen in dry ice/ethanol and kept at −80° C. until the day of the assay. II) A Ca^2+-Sensitive, Fluorescence-Based Assay α-7 for Nicotinic Acetylcholine Receptor Channel Function In Mammalian Cells (“FLIPR”). Summary: Lead compounds are evaluated for agonist activity at […], α3β4, […], and α1β1δ1ε sub-types of nicotinic ACh receptor ion channels expressed in mammalian HEK 293 cells. Agonist potency and efficacy values are determined from kinetic fluorescence Ca^2+ influx measurements made using a 384 well FLIPR (Fluorescence Image Plate Reader). […] In this assay, channel expressing HEK cell lines seeded in 384 well assay plates are loaded with a membrane permeant fluorescent Ca^2+ indicator dye, whose 510 nm green emission signal increases in response to elevation of intracellular Ca^2+ concentration. The basal fluorescence from the cells is monitored in real time, followed by the acute addition of test compounds.
Materials and Methods: Reagents: The acetomethoxy (AM) ester of the Ca^2+ indicator dye Fluo-4 was obtained from InVitrogen, (Carlsbad, Calif.). Acetylcholine and all buffer constituents were purchased from Sigma Chemical Company, St. Louis, Mo. G418 and Minimal Essential Medium were purchased from InVitrogen Life Technologies, Carlsbad, Calif. Fetal bovine serum was purchased from (InVitrogen, Carlsbad, Calif.).
Cell Culture: HEK-293 cells were grown in Minimal Essential Medium containing 10% (v/v) fetal bovine serum at 37° C. in a 5% CO2 incubator. HEK-293 cells stably expressing the ion channels were grown in the same medium with the addition of 500 μg/ml G418.
Ca^2+ flux assays of Ca^2+ channels expressed in HEK-293 cells: HEK-293 cells expressing the ion channels of interest were plated in 384 well, black-walled, clear-bottomed, poly-D-lysine coated plates at a density of ˜20,000 cells/well in 20 μl of Minimal Essential Medium containing 10% (v/v) fetal bovine serum and incubated for 2 days at 29° C. in a 5% CO2 incubator. Prior to assay, cells were loaded with the Fluo-4 AM ester. […] Dye loading was allowed to proceed for 90 minutes at room temperature at which time the dye loading solution was removed and replaced with 40 μl/well of Hanks buffer. Cells loaded with dye were loaded onto a FLIPR384 (Molecular Devices, Sunnyvale, Calif.). Fluo-4 dye was excited using the 488 nm line of an argon laser. Emission was filtered using a 540+/−30 nm bandpass filter. For evaluation of the effects of test compounds using the Ca^2+ flux assay, compounds to be tested were provided in assay ready plates. For nicotinic receptor ion channel expressing cells, the assay was initiated by the addition of 20 μl/well of Hanks buffer containing test compounds. For all assays, data were collected at 1 Hz for 10 seconds (baseline), at which time the compound containing stimulus buffers are added, and further measurements collected at 0.33 Hz for 3 min.
Data Analysis: The statistical robustness of the nicotinic receptor Ca^2+ flux assays is determined from blanks and totals wells. […] The raw fluorescence units data files generated on the FLIPR plate reader are automatically exported and processed by in-house data analysis tools.

[1] abbreviates: FLIPR α7 activity rating (EC50, nM), Table 1, HEK 293 cells, agonist Ca2+ flux.
The mark [2] stands for this setting: FLIPR α7 (EC50, nM), Table 1, HEK 293 cells, agonist Ca2+ flux.

Like-named read-outs stand apart in the source and are kept apart here.

T1 sequence (Q05941 23-502): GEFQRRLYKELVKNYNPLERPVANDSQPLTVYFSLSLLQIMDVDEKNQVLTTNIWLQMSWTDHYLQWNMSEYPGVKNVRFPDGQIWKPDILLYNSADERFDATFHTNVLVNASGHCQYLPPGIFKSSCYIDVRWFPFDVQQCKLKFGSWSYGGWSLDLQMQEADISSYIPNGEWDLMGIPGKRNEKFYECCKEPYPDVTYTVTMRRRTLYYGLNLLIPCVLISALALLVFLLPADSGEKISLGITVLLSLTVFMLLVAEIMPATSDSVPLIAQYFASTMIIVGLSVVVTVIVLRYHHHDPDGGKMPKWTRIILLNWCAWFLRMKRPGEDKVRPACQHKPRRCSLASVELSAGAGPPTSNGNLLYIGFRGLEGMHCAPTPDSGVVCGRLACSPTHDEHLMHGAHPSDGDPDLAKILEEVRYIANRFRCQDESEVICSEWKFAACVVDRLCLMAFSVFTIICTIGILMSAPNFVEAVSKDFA

Regarding `Cc1ccc2nc(NC3=NCC4(CN5CCC4CC5)O3)sc2c1` (single isomer, unassigned) [Example 12a, N-(6-Methylbenzo[d]thiazol-2-yl)-4H-1′-azaspiro[oxazole-5,3′-bicyclo[2.2.2]octan]-2-amine], under setting [1], the EC50 lay within 100 to 1000 nM. Under setting [1], `Cc1ccc2nc(NC3=NCC4(CN5CCC4CC5)O3)sc2c1` (single isomer, unassigned) [Example 12b, N-(6-Methylbenzo[d]thiazol-2-yl)-4H-1′-azaspiro[oxazole-5,3′-bicyclo[2.2.2]octan]-2-amine] yielded an EC50 of 1000 to 100000 nM. With `Oc1ccc2nc(NC3=NCC4(CN5CCC4CC5)O3)sc2c1` (single isomer, unassigned) [Example 13a], the EC50 under setting [1] lay within 100 to 1000 nM. With `Oc1ccc2nc(NC3=NCC4(CN5CCC4CC5)O3)sc2c1` (single isomer, unassigned) [Example 13b], the EC50 under setting [1] is under 100 nM. Compound `C1CCc2sc(NC3=NCC4(CN5CCC4CC5)O3)nc2C1` (single isomer, unassigned) [Example 14b] returned an EC50 under setting [1] of 100 to 1000 nM. With `CC(C)c1csc(NC2=NCC3(CN4CCC3CC4)O2)n1` (single isomer, unassigned) [Example 15a], the EC50 runs as follows: under setting [2], 6350 nM; under setting [1], 1000 to 100000 nM.

For `CC(C)c1csc(NC2=NCC3(CN4CCC3CC4)O2)n1` (single isomer, unassigned) [Example 15b], the EC50 under setting [1] was in the range of 100 to 1000 nM.

On to `c1csc(NC2=NCC3(CN4CCC3CC4)O2)n1` (single isomer, unassigned) [Example 16a], for which the EC50 is, setting by setting: under setting [2], 3170 nM; under setting [1], 1000 to 100000 nM. `c1csc(NC2=NCC3(CN4CCC3CC4)O2)n1` (single isomer, unassigned) [Example 16b] registered an EC50 under setting [1] of 100 to 1000 nM. As to `COc1ccc(-c2csc(NC3=NCC4(CN5CCC4CC5)O3)n2)cc1` (single isomer, unassigned) [Example 20a], the EC50 under setting [1] lay in the range of 100 to 1000 nM. In the case of `COc1ccc(-c2csc(NC3=NCC4(CN5CCC4CC5)O3)n2)cc1` (single isomer, unassigned) [Example 20b], the EC50 was 318 nM under setting [2] and 100 to 1000 nM (read-out: FLIPR α7 activity rating (EC50), Table 1, HEK 293 cells, agonist Ca2+ flux). `O=C(c1ccc2nc(NC3=NCC4(CN5CCC4CC5)O3)sc2c1)N1CCCC1` (centres unmarked) [Example 3] yielded an EC50 of 3840 nM. The same compound registered an EC50 under setting [1] of 1000 to 100000 nM. As for `COc1ccc2nc(NC3=NCC4(CN5CCC4CC5)O3)sc2c1` (centres unmarked) [Example 5, N-(6-Methoxybenzo[d]thiazol-2-yl)-4H-1′-azaspiro[oxazole-5,3′-bicyclo[2.2.2]octan]-2-amine], under setting [1], the EC50 was in the range of 100 to 1000 nM. Still for that read-out and setting: to `Cc1cccc2sc(NC3=NCC4(CN5CCC4CC5)O3)nc12` (centres unmarked) [Example 6, N-(4-Methylbenzo[d]thiazol-2-yl)-4H-1′-azaspiro[oxazole-5,3′-bicyclo[2.2.2]octan]-2-amine] belongs 100 to 1000 nM. Same read-out and setting: in the case of `Clc1ccc2nc(NC3=NCC4(CN5CCC4CC5)O3)sc2c1` (centres unmarked) [Example 9, N-(6-Chlorobenzo[d]thiazol-2-yl)-4H-1′-azaspiro[oxazole-5,3′-bicyclo[2.2.2]octan]-2-amine] it was 100 to 1000 nM; in that of `Cn1c(NC2=NCC3(CN4CCC3CC4)O2)nc2ccccc21` (centres unmarked) [Example 10, N-(1-methyl-1H-benzo[d]imidazol-2-yl)-4H-1′-azaspiro[oxazole-5,3′-bicyclo[2.2.2]octan]-2-amine], 100 to 1000 nM; in that of `CCOc1ccc2nc(NC3=NCC4(CN5CCC4CC5)O3)sc2c1` (centres unmarked) [Example 11, N-(6-Ethoxybenzo[d]thiazol-2-yl)-4H-1′-azaspiro[oxazole-5,3′-bicyclo[2.2.2]octan]-2-amine], 100 to 1000 nM. Under setting [1], `Cc1ccc2nc(NC3=NCC4(CN5CCC4CC5)O3)sc2c1` (centres unmarked) [Example 12, N-(6-Methylbenzo[d]thiazol-2-yl)-4H-1′-azaspiro[oxazole-5,3′-bicyclo[2.2.2]octan]-2-amine] had a concentration giving a half-maximal response (EC50) of 100 to 1000 nM.

`CC(=O)Nc1ccc2nc(NC3=NC[C@@]4(CN5CCC4CC5)O3)sc2c1` [Example 21, (R)—N-(2-(4H-1′-Azaspiro[oxazole-5,3′-bicyclo[2.2.2]octane]-2-ylamino)benzo[d]thiazol-6-yl)acetamide] had an EC50 under setting [1] of under 100 nM.

`COc1ccc2nc(NC3=NC[C@@]4(CN5CCC4CC5)O3)nn2c1` [Example 24, (R)—N-(6-Methoxy-[1,2,4]-triazolo[1,5-a]pyridin-2-yl)-4H-1′-azaspiro[oxazole-5,3′-bicyclo[2.2.2]octan]-2-amine] came in with an EC50 under setting [1] of under 100 nM. Regarding `FC(F)(F)c1cnc(NC2=NC[C@@]3(CN4CCC3CC4)O2)cn1` [Example 25, (R)—N-(5-(Trifluoromethyl)pyrazin-2-yl)-4H-1′-azaspiro[oxazole-5,3′-bicyclo[2.2.2]octan]-2-amine], the EC50 runs as follows: under setting [2], 510 nM; under setting [1], 100 to 1000 nM. Compound `Fc1ccc2c(NC3=NC[C@@]4(CN5CCC4CC5)O3)n[nH]c2c1` [Example 26, (R)—N-(6-Fluoro-1H-indazol-3-yl)-4H-1′-azaspiro[oxazole-5,3′-bicyclo[2.2.2]octan]-2-amine] had an EC50 under setting [1] of under 100 nM. In turn, `c1ccc(-c2cncc(NC3=NC[C@@]4(CN5CCC4CC5)O3)c2)cc1` [Example 28, (R)—N-(5-Phenylpyridin-3-yl)-4H-1′-azaspiro[oxazole-5,3′-bicyclo[2.2.2]octan]-2-amine] registered an EC50 of 4010 nM. The same compound displayed an EC50 under setting [1] of 1000 to 100000 nM. On to `c1ccc(-c2cc(NC3=NC[C@@]4(CN5CCC4CC5)O3)ccn2)cc1` [Example 29, (R)—N-(2-Phenylpyridin-4-yl)-4H-1′-azaspiro[oxazole-5,3′-bicyclo[2.2.2]octan]-2-amine], for which the EC50 under setting [1] is 100 to 1000 nM. `c1ccc(-c2cccc(NC3=NC[C@@]4(CN5CCC4CC5)O3)n2)cc1` [Example 30, (R)—N-(6-Phenylpyridin-2-yl)-4H-1′-azaspiro[oxazole-5,3′-bicyclo[2.2.2]octan]-2-amine] displayed an EC50 under setting [1] of 100 to 1000 nM. Consider `Cn1nc(NC2=NC[C@@]3(CN4CCC3CC4)O2)c2ccc(OC(F)F)cc21` [Example 31, (R)—N-(6-(Difluoromethoxy)-1-methyl-1H-indazol-3-yl)-4H-1′-azaspiro[oxazole-5,3′-bicyclo[2.2.2]octan]-2-amine], for which the EC50 under setting [1] was in the range of 100 to 1000 nM. Regarding `FC(F)Oc1ccc2nc(NC3=NC[C@@]4(CN5CCC4CC5)O3)sc2n1` [Example 32, (R)—N-(5-(Difluoromethoxy)thiazolo[5,4-b]pyridin-2-yl)-4H-1′-azaspiro[oxazole-5,3′-bicyclo[2.2.2]octan]-2-amine], under setting [1], the EC50 was in the range of 100 to 1000 nM. `c1nc(N2CCCC2)cnc1NC1=NC[C@@]2(CN3CCC2CC3)O1` [Example 34, (R)—N-(5-(Pyrrolidin-1-yl)pyrazin-2-yl)-4H-1′-azaspiro[oxazole-5,3′-bicyclo[2.2.2]octan]-2-amine] showed an EC50 under setting [1] of 1000 to 100000 nM. On to `O=C1CCCN1c1cnc(NC2=NC[C@@]3(CN4CCC3CC4)O2)cn1` [Example 35, (R)-1-(5-(4H-1′-Azaspiro[oxazole-5,3′-bicyclo[2.2.2]octane]-2-ylamino)pyrazin-2-yl)pyrrolidin-2-one], for which the EC50 stood at 4030 nM. Further, the EC50 under setting [1] fell in the range of 1000 to 100000 nM. Under setting [1], `c1cncc(-c2cnc(NC3=NC[C@@]4(CN5CCC4CC5)O3)cn2)c1` [Example 36, (R)—N-(5-(Pyridin-3-yl)pyrazin-2-yl)-4H-1′-azaspiro[oxazole-5,3′-bicyclo[2.2.2]octan]-2-amine] gave a half-maximal effective concentration (EC50) of 100 to 1000 nM. For `COc1ccc(-c2cnc(NC3=NC[C@@]4(CN5CCC4CC5)O3)cn2)cn1` [Example 37, (R)—N-(5-(6-Methoxypyridin-3-yl)pyrazin-2-yl)-4H-1′-azaspiro[oxazole-5,3′-bicyclo[2.2.2]octan]-2-amine], the EC50 under setting [1] is 1000 to 100000 nM.

The term EC50 denotes the concentration that produces a half-maximal response.
